Laboratory results: patent US8883841B2, “Oncogenic ras-specific cytotoxic compound and methods of use thereof” (The Board of Regents of the University of Texas System, priority 2005, dated 2014)
Where two headings read alike, the source gives them in different places.

Legend:
H2087 = assay: Cell viability, H2087 lung cancer cells; format: cell-based, human; settings: Homo sapiens, NCI-H2087; H2087, Lung; read-out: IC50 (−LogM) (converted)
EKVX = assay: NCI in-vitro testing, EKVX (Non-Small Cell Lung Cancer)
NCI-H460 = assay: NCI in-vitro testing, NCI-H460 (Non-Small Cell Lung Cancer)
UO-31 = assay: NCI in-vitro testing, UO-31 (Renal Cancer)
NCI-H23 = assay: NCI in-vitro testing, NCI-H23 (Non-Small Cell Lung Cancer)
H460 cells = assay: cells; settings: Homo sapiens
SF-539 = assay: NCI in-vitro testing, SF-539 (CNS Cancer)
Ovcar443 = assay: Cell viability, Ovcar443 ovary cancer cells; format: cell-based
DU-145 = assay: NCI in-vitro testing, DU-145 (Prostate Cancer)
NCI-H522 = assay: NCI in-vitro testing, NCI-H522 (Non-Small Cell Lung Cancer)
HS 578T = assay: NCI in-vitro testing, HS 578T (Breast Cancer)
MOLT-4 = assay: NCI in-vitro testing, MOLT-4 (Leukemia)
Sw620 = assay: Cell viability, Sw620 colon cancer cells; format: cell-based, human; settings: Homo sapiens, SW-620; Sw620, Colon; read-out: IC50 (−LogM) (converted)
K-562 = assay: NCI in-vitro testing, K-562 (Leukemia)
H322 cells = assay: Cell viability, H322 lung cancer cells; format: cell-based, human; settings: Homo sapiens, NCI-H322; H322, Lung; read-out: IC50 (−LogM) (converted)
Hey = assay: Cell viability, Hey ovary cancer cells; format: cell-based
OVCAR-3 = assay: NCI in-vitro testing, OVCAR-3 (Ovarian Cancer)
HCT-116 = assay: NCI in-vitro testing, HCT-116 (Colon Cancer)
RPMI-8226 = assay: NCI in-vitro testing, RPMI-8226 (Leukemia)

OCc1cn(Cc2ccc(Cl)cc2)c2ccccc12 [Oncrasin K060, 1H-Indole-3-methanol, 1-[(4-chlorophenyl)methyl]-]
IC50 (H2087): 25.1 µM | TGI (EKVX): 6.47E−5 Molar | GI50 (EKVX; Homo sapiens): 24 µM | CC50 (EKVX; Homo sapiens, read-out: LC50): > 100 µM | GI50 (EKVX; Homo sapiens, read-out: Log10 GI50 (converted)): 24 µM | Percent Growth (EKVX; Log10 Concentration −4.0 Molar): −22% | Percent Growth (EKVX; Log10 Concentration −5.0 Molar): 94% | Percent Growth (EKVX; Log10 Concentration −6.0 Molar): 107% | Percent Growth (EKVX; Log10 Concentration −7.0 Molar): 105% | Percent Growth (EKVX; Log10 Concentration −8.0 Molar): 103% | TGI (NCI-H460): 3.79E−5 Molar | GI50 (NCI-H460; Homo sapiens, NCI-H460): 0.0888 µM | CC50 (NCI-H460; Homo sapiens, NCI-H460, read-out: LC50): > 100 µM | GI50 (NCI-H460; Homo sapiens, NCI-H460, read-out: Log10 GI50 (converted)): 0.0891 µM | Percent Growth (NCI-H460; Log10 Concentration −4.0 Molar): −9% | Percent Growth (NCI-H460; Log10 Concentration −5.0 Molar): 13% | Percent Growth (NCI-H460; Log10 Concentration −6.0 Molar): 20% | Percent Growth (NCI-H460; Log10 Concentration −7.0 Molar): 48% | Percent Growth (NCI-H460; Log10 Concentration −8.0 Molar): 79% | GI50 (UO-31; Homo sapiens, UO-31): 1.58 µM | CC50 (UO-31; Homo sapiens, UO-31, read-out: LC50): > 100 µM | GI50 (UO-31; Homo sapiens, UO-31, read-out: Log10 GI50 (converted)): 1.58 µM | TGI (UO-31; UO-31): 1.55E−5 Molar | Percent Growth (UO-31; UO-31, Log10 Concentration −4.0 Molar): −42% | Percent Growth (UO-31; UO-31, Log10 Concentration −5.0 Molar): 10% | Percent Growth (UO-31; UO-31, Log10 Concentration −6.0 Molar): 60% | Percent Growth (UO-31; UO-31, Log10 Concentration −7.0 Molar): 80% | Percent Growth (UO-31; UO-31, Log10 Concentration −8.0 Molar): 90% | GI50 (NCI-H23; Homo sapiens, NCI-H23): 2.9 µM | CC50 (NCI-H23; Homo sapiens, NCI-H23, read-out: LC50): 71.1 µM | GI50 (NCI-H23; Homo sapiens, NCI-H23, read-out: Log10 GI50 (converted)): 2.88 µM | TGI (NCI-H23; NCI-H23): 2.10E−5 Molar | Percent Growth (NCI-H23; NCI-H23, Log10 Concentration −4.0 Molar): −54% | Percent Growth (NCI-H23; NCI-H23, Log10 Concentration −5.0 Molar): 31% | Percent Growth (NCI-H23; NCI-H23, Log10 Concentration −6.0 Molar): 67% | Percent Growth (NCI-H23; NCI-H23, Log10 Concentration −7.0 Molar): 82% | Percent Growth (NCI-H23; NCI-H23, Log10 Concentration −8.0 Molar): 94% | IC50 (H460 cells; NCI-H460, read-out: IC50 (−LogM), H460, Lung (converted)): 0.0158 µM | IC50 (H460 cells; NCI-H460, read-out: IC50 in H460 cells, Table 1): 0.0158 µM | GI50 (SF-539; Homo sapiens, SF-539): 10.9 µM | CC50 (SF-539; Homo sapiens, SF-539, read-out: LC50): 60 µM | GI50 (SF-539; Homo sapiens, SF-539, read-out: Log10 GI50 (converted)): 11 µM | TGI (SF-539; SF-539): 2.70E−5 Molar | Percent Growth (SF-539; SF-539, Log10 Concentration −4.0 Molar): −73% | Percent Growth (SF-539; SF-539, Log10 Concentration −5.0 Molar): 55% | Percent Growth (SF-539; SF-539, Log10 Concentration −6.0 Molar): 104% | Percent Growth (SF-539; SF-539, Log10 Concentration −7.0 Molar): 110% | Percent Growth (SF-539; SF-539, Log10 Concentration −8.0 Molar): 108% | IC50 (Ovcar443): 2.51 µM | TGI (DU-145; DU-145): 2.78E−5 Molar | Percent Growth (DU-145; DU-145, Log10 Concentration −4.0 Molar): −53% | Percent Growth (DU-145; DU-145, Log10 Concentration −5.0 Molar): 42% | Percent Growth (DU-145; DU-145, Log10 Concentration −6.0 Molar): 96% | Percent Growth (DU-145; DU-145, Log10 Concentration −7.0 Molar): 105% | Percent Growth (DU-145; DU-145, Log10 Concentration −8.0 Molar): 108% | GI50 (DU-145; Homo sapiens, DU-145): 7.25 µM | CC50 (DU-145; Homo sapiens, DU-145, read-out: LC50): 93.3 µM | GI50 (DU-145; Homo sapiens, DU-145, read-out: Log10 GI50 (converted)): 7.24 µM | TGI (NCI-H522): 1.24E−5 Molar | GI50 (NCI-H522; Homo sapiens, NCI-H522): 2.41 µM | CC50 (NCI-H522; Homo sapiens, NCI-H522, read-out: LC50): 51 µM | GI50 (NCI-H522; Homo sapiens, NCI-H522, read-out: Log10 GI50 (converted)): 2.4 µM | Percent Growth (NCI-H522; Log10 Concentration −4.0 Molar): −74% | Percent Growth (NCI-H522; Log10 Concentration −5.0 Molar): 7% | Percent Growth (NCI-H522; Log10 Concentration −6.0 Molar): 76% | Percent Growth (NCI-H522; Log10 Concentration −7.0 Molar): 82% | Percent Growth (NCI-H522; Log10 Concentration −8.0 Molar): 91% | TGI (HS 578T): 2.75E−5 Molar | GI50 (HS 578T; Homo sapiens, Hs-578T): 46.8 µM | CC50 (HS 578T; Homo sapiens, Hs-578T, read-out: LC50): > 100 µM | GI50 (HS 578T; Homo sapiens, Hs-578T, read-out: Log10 GI50 (converted)): 4.68 µM | GI50 (MOLT-4; Homo sapiens, MOLT-4): 17.7 µM | CC50 (MOLT-4; Homo sapiens, MOLT-4, read-out: LC50): 82.8 µM | GI50 (MOLT-4; Homo sapiens, MOLT-4, read-out: Log10 GI50 (converted)): 17.8 µM | TGI (MOLT-4; MOLT-4): 3.82E−5 Molar | Percent Growth (MOLT-4; MOLT-4, Log10 Concentration −4.0 Molar): −62% | Percent Growth (MOLT-4; MOLT-4, Log10 Concentration −5.0 Molar): 87% | Percent Growth (MOLT-4; MOLT-4, Log10 Concentration −6.0 Molar): 109% | Percent Growth (MOLT-4; MOLT-4, Log10 Concentration −7.0 Molar): 102% | Percent Growth (MOLT-4; MOLT-4, Log10 Concentration −8.0 Molar): 114% | IC50 (Sw620): 5.01 µM | GI50 (K-562; Homo sapiens, K562): 19.2 µM | CC50 (K-562; Homo sapiens, K562, read-out: LC50): 6.46 µM | GI50 (K-562; Homo sapiens, K562, read-out: Log10 GI50 (converted)): 1.91 µM | TGI (K-562; K-562): 1.26E−6 Molar | Percent Growth (K-562; K-562, Log10 Concentration −4.0 Molar): −71% | Percent Growth (K-562; K-562, Log10 Concentration −5.0 Molar): 8% | Percent Growth (K-562; K-562, Log10 Concentration −6.0 Molar): 67% | Percent Growth (K-562; K-562, Log10 Concentration −7.0 Molar): 100% | Percent Growth (K-562; K-562, Log10 Concentration −8.0 Molar): 114% | IC50 (H322 cells): 31.6 µM | IC50 (Hey): 10 µM | GI50 (OVCAR-3; Homo sapiens, OVCAR-3): 0.569 µM | CC50 (OVCAR-3; Homo sapiens, OVCAR-3, read-out: LC50): 69.1 µM | GI50 (OVCAR-3; Homo sapiens, OVCAR-3, read-out: Log10 GI50 (converted)): 0.575 µM | TGI (OVCAR-3; OVCAR-3): 1.03E−5 Molar | Percent Growth (OVCAR-3; OVCAR-3, Log10 Concentration −4.0 Molar): −60% | Percent Growth (OVCAR-3; OVCAR-3, Log10 Concentration −5.0 Molar): 1% | Percent Growth (OVCAR-3; OVCAR-3, Log10 Concentration −6.0 Molar): 42% | Percent Growth (OVCAR-3; OVCAR-3, Log10 Concentration −7.0 Molar): 77% | Percent Growth (OVCAR-3; OVCAR-3, Log10 Concentration −8.0 Molar): 95% | TGI (HCT-116; HCT-116): 1.06E−5 Molar | Percent Growth (HCT-116; HCT-116, Log10 Concentration −4.0 Molar): −64% | Percent Growth (HCT-116; HCT-116, Log10 Concentration −5.0 Molar): 2% | Percent Growth (HCT-116; HCT-116, Log10 Concentration −6.0 Molar): 10% | Percent Growth (HCT-116; HCT-116, Log10 Concentration −7.0 Molar): 30% | Percent Growth (HCT-116; HCT-116, Log10 Concentration −8.0 Molar): 68% | GI50 (HCT-116; Homo sapiens, HCT-116): 0.0204 µM | CC50 (HCT-116; Homo sapiens, HCT-116, read-out: LC50): 6.06 µM | GI50 (HCT-116; Homo sapiens, HCT-116, read-out: Log10 GI50 (converted)): 0.0295 µM | GI50 (RPMI-8226; Homo sapiens, RPMI-8226): 0.372 µM | CC50 (RPMI-8226; Homo sapiens, RPMI-8226, read-out: LC50): > 100 µM | GI50 (RPMI-8226; Homo sapiens, RPMI-8226, read-out: Log10 GI50 (converted)): 0.372 µM | TGI (RPMI-8226; RPMI-8226): 3.19E−6 Molar | Percent Growth (RPMI-8226; RPMI-8226, Log10 Concentration −4.0 Molar): −35% | Percent Growth (RPMI-8226; RPMI-8226, Log10 Concentration −5.0 Molar): −23% | Percent Growth (RPMI-8226; RPMI-8226, Log10 Concentration −6.0 Molar): 24% | Percent Growth (RPMI-8226; RPMI-8226, Log10 Concentration −7.0 Molar): 85% | Percent Growth (RPMI-8226; RPMI-8226, Log10 Concentration −8.0 Molar): 119%
